Substitutions are numbered along the chain they refer to.
How the values were obtained:
[1] = target: T1, Dahl S Dear S44/M74 variant (Rattus norvegicus, UniProt D3ZGZ6, F4L); test: Radioligand binding to Dahl S Dear expressed in Cos1 cell membranes; settings: for hormone binding, in words: Dahl S Dear transiently expressed in Cos1 cells; for Bmax / h (Hill coefficient): S44/M74 variant, mean ± s.e.m.
T1 construct: expressed in transfected cells; host or cells: Cos1 cells (membranes), pcDNA expression vector
T1 sequence (D3ZGZ6 1-127 F4L): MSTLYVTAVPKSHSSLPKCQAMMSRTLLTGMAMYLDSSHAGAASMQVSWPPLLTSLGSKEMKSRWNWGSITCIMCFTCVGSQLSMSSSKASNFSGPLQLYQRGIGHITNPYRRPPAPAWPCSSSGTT
Method: (§1) The Dahl S and Dahl R Dear cDNAs were subcloned directionally (5′ to 3′) into the pcDNA (+) expression vector (Invitrogen, Carlsbad, Calif.) and transiently expressed in Cos1 cells (ATCC). Cos1 cells were transfected with the expression vectors via lipofectin-mediated gene transfer and cell membranes were isolated 72 hr post-transfection for hormone binding. Rat kidney membranes were prepared essentially as described (42). COS-1 cell membranes were isolated as described (36). Briefly, cells were washed twice in phosphate-buffered saline and homogenized in 10-fold ice-cold buffer (0.25 M sucrose, 1 mM EDTA, 50 μg/ml aprotinin, 10 μg/ml leupeptin, 100 μM phenylmethylsulfonyl fluoride, 25 mM Imidazol/HCl, pH 7.4). The homogenate was centrifuged at 5,000 g for 15 min and the pellet was discarded. The supernatant was then centrifuged at 27,500 g for 30 min and the resulting pellet was washed twice in ice-cold suspension buffer (5 mM MgCl2, 0.2 mM EDTA, 50 mM Hepes, pH 7.4). The final pellet was resuspended into the appropriate assay buffer and quickly frozen in liquid nitrogen. The membrane preparations were store at −80° C. until use. Protein concentrations of the membranes were determined by BCA protein assay kit (PIERCE).
(§2) Binding of [^125I]Tyr^4-angiotensin II and [^125I]Tyr^13-endothelin-1 to COS-1 membranes was performed by a rapid filtration method (32, 50). Briefly, [^125I]Tyr^4-angiotensin II ([…]) or [^125I]Tyr^13-endothelin-1 (0.045˜1.46 nM) was incubated with membranes (100 μg) for 20 min at 37° C. in 100 μl buffer A (5 mM MgCl2, 0.2 mM EDTA, 10 mg/ml BSA, 10 mM Hepes, pH7.4). Binding reactions were terminated by the addition of 1 ml ice-cold buffer A and immediately filtered through a Whatman GF/C filter (presoaked overnight at 4° C. in 10 mg/ml BSA) and subsequently washed with 15 ml ice-cold buffer A. Specific binding was determined as the difference between the total radioactivity bound to membranes and the radioactivity bound to blanks containing 1 μM AngII or 1 μM ET-1. The dissociation constant (Kd) and maximum ligand-binding sites (Bmax) were determined using Hill plot analysis (55). Hill coefficient values (h) were calculated from the relationship ln [B/(Bmax−B)]=h ln [free Radioligand]−ln Kd. An F test (P<0.05) was used to determine whether the saturation binding curves best fitted one or two independent binding sites. The data were best fit by two affinity states determined by Scatchard plot analysis; KH and KL designate the Kd for high- and low-affinity states of the receptor, respectively (44). Most results are expressed as the mean±SE (standard error) from three to five independent experiments.

[2] = target: T2, Dahl R Dear S44P/M74T variant (Rattus norvegicus, UniProt D3ZGZ6, F4L/M74T/S44P); test: Radioligand binding to Dahl R Dear expressed in Cos1 cell membranes; settings: for hormone binding (direct radioligand binding), in words: Dahl R Dear transiently expressed in Cos1 cells
T2 construct: expressed in transfected cells; host or cells: Cos1 cells (membranes), pcDNA expression vector
T2 sequence (D3ZGZ6 1-127 F4L/S44P/M74T): T1 sequence (D3ZGZ6 1-127 F4L) with S44P, M74T
Method: as §1, §2

[3] = target: T2, Dahl R Dear S44P/M74T variant; test: West-western blot of kidney and Cos1 cell membranes (labeled ligand on protein blot); type: binding; settings: Dahl R kidney membranes (Kid-R) and Cos1-R membranes
Method: (§3) A polyclonal rabbit antipeptide antibody raised against the synthetic peptide P51LLTSLGSKE60 (SEQ. ID. NO. 7) was utilized for western blot analysis (1). Plasma membranes (40 μg protein/lane) were subjected to 12.5% SDS-PAGE and the separated proteins electro-transferred onto PVDF membranes which were incubated with blocking buffer (0.3% Tween-20, 5% non-fat milk, 137 mM NaCl, 2.7 mM KCl, 8.1 mM Na2HPO4, and 1.5 mM KH2PO4, pH7.4) for 2 hr at room temperature, and then incubated with primary antibody (1:500) for 16 hr at 4° C. The PVDF membranes were then sequentially incubated with biotinylated goat anti-rabbit IgG followed by immunostaining with horseradish peroxidase-linked streptavidin. To confirm the interaction between Dear and ligands, we performed west-western blot analysis (62). Briefly, protein blots of kidney and COS-1 cell membranes were incubated with radioligands (0.5 μCi in 10 ml) in buffer A at 37° C. for 16 hr. PVDF membranes were then washed three times for 15 min with buffer A at 37° C. and exposed to X-ray film at −80° C. for 1-3 days.

[4] = target: T1, Dahl S Dear S44/M74 variant; test: as above; type: binding; settings: Dahl S kidney membranes (Kid-S) and Cos1-S membranes
Method: as §3

mouse Dear = target: T3, mouse Dear (Mus musculus, UniProt Q2QKR2); test: Ligand binding to mouse Dear expressed in Cos-1 cells; settings: mouse receptor polypeptide, data not shown
T3 construct: The mouse receptor polypeptide contains 127 amino acids showing 78 percent homology with the rat receptor; expressed in transfected cells; host or cells: Cos-1 cells (membranes)
T3 sequence (Q2QKR2 1-127): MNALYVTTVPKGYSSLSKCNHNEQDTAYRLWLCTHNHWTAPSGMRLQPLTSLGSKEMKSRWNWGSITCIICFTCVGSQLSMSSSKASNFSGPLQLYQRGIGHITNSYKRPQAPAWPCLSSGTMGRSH
Method: Mouse Dear cDNA was obtained by RT-PCR from C57BL/6 mouse kidney PolyA^+ RNA (forward primer, 5′-[…]-3′ (SEQ. ID. NO. 13); reverse primer, 5′-[…]-3′(SEQ. ID. NO. 14)), subcloned into the PT-vector system (Clontech, Palo Alto, Calif.) and then sequenced (GenBank accession no. DQ009865). RNA blot analysis was done as described (1) using PolyA^+ RNA (3 μg), γ-^32P end labeled anti-sense mouse Dear oligonucleotide (5′-[…]-3′(SEQ. ID. NO. 15)) as probe. Receptor expression studies, ^125I-ET-1-1 and ^125I-AngII binding to membranes were done as described (2).

[5] = [125I]Tyr13-Endothelin I, S44P/M74T variant, mean ± s.e.m.

Structure (SMILES) | hormone binding, in words [1] | Bmax ([1]; [125I]Tyr4-Angiotensin II, Cos1 membranes) | h (Hill coefficient) ([1]; [125I]Tyr4-Angiotensin II) | hormone binding (direct radioligand binding), in words [2] | Bmax ([2]; [125I]Tyr4-Angiotensin II, S44P/M74T variant, Cos1 membranes) | binding in west-western blot analysis [3] | binding in west-western blot analysis [4] | increased affinity for ET-1, Dahl S variant compared to Dahl R variant ([1]; KH, S44/M74 vs Dahl R variant) | Bmax ([1]; [125I]Tyr13-Endothelin I) | h (Hill coefficient) ([1]; [125I]Tyr13-Endothelin I) | Bmax [2, 5] | h (Hill coefficient) [2, 5] | ligand binding, in words (mouse Dear)
CC[C@H](C)[C@H](NC(=O)[C@H](Cc1ccc(O)c(I)c1)NC(=O)[C@@H](NC(=O)[C@H](CCCNC(=N)N)NC(=O)[C@@H](N)CC(=O)O)C(C)C)C(=O)N[C@@H](Cc1c[nH]cn1)C(=O)N1CCC[C@H]1C(=O)N[C@@H](Cc1ccccc1)C(=O)O [[^125I]Tyr^4-Angiotensin II] | binding both ET-1 and AngII | 23.6 ± 0.92 pmol/mg membrane protein | 2.63 ± 0.25 | do not exhibit AngII binding | no binding | binding only to Dahl S kidney membranes | detects binding |  |  |  |  |  | 
CC[C@H](C)[C@H](NC(=O)[C@H](CC(=O)O)NC(=O)[C@H](CC(C)C)NC(=O)[C@H](Cc1c[nH]cn1)NC(=O)[C@@H]1CSSC[C@H](N)C(=O)N[C@@H](CO)C(=O)N[C@H]2CSSC[C@H](NC(=O)[C@H](CCC(=O)O)NC(=O)[C@H](CCCCN)NC(=O)[C@H](CC(=O)O)NC(=O)[C@H](CCSC)NC(=O)[C@H](CC(C)C)NC(=O)[C@H](CO)NC(=O)[C@H](CO)NC2=O)C(=O)N[C@@H](C(C)C)C(=O)N[C@@H](Cc2ccc(O)c(I)c2)C(=O)N[C@@H](Cc2ccccc2)C(=O)N1)C(=O)N[C@H](C(=O)N[C@@H](Cc1c[nH]c2ccccc12)C(=O)O)[C@@H](C)CC [[^125I]Tyr^13-Endothelin I] | binding both ET-1 and AngII |  |  | exhibit normal ET-1 binding |  | reveals binding | reveals binding | 3 fold | 26.25 ± 1.29 pmol/mg membrane protein | 1.41 ± 0.12 | 20.21 ± 1.59 pmol/mg membrane protein | 1.45 ± 0.09 | binds solely ET-1
